Source: patent US12378231B2, “Small molecules as monoacylglycerol lipase (MAGL) inhibitors, compositions and use thereof” (APOGEE PHARMACEUTICALS, INC., priority 2023, dated 2025)
Like-named read-outs stand apart in the source and are kept apart here.

Columns and labels:
human recombinant MAGL = human recombinant MAGL (Homo sapiens (Human), UniProt Q99685); test: In vitro inhibition of human recombinant MAGL activity (Cayman inhibitor screening kit, 4-nitrophenylacetate hydrolysis); format: biochemical
Source text: The inhibitory effect of the synthetic chemicals on activity of human recombinant MAGL was studied using commercial inhibitor screening kit (Cayman Chemical). […] The absorbance of the yellow product can be analyzed using the plate reader. […]

human recombinant FAAH = human recombinant FAAH (Homo sapiens (Human), UniProt O00519); test: In vitro inhibition of human recombinant FAAH activity (Cayman FAAH inhibitor screening kit, AMC arachidonoyl amide hydrolysis); format: biochemical
Source text: In brief, FAAH hydrolyzes AMC arachidonoyl amide resulting in the release of the fluorescent product, while the inhibitor will inhibit the FAAH activity and thus reduce the fluorescent signal.

[1] = human recombinant MAGL, read-out: Inhibition on MAGL activity (IC50)

Chain of human recombinant FAAH (O00519 whole entry): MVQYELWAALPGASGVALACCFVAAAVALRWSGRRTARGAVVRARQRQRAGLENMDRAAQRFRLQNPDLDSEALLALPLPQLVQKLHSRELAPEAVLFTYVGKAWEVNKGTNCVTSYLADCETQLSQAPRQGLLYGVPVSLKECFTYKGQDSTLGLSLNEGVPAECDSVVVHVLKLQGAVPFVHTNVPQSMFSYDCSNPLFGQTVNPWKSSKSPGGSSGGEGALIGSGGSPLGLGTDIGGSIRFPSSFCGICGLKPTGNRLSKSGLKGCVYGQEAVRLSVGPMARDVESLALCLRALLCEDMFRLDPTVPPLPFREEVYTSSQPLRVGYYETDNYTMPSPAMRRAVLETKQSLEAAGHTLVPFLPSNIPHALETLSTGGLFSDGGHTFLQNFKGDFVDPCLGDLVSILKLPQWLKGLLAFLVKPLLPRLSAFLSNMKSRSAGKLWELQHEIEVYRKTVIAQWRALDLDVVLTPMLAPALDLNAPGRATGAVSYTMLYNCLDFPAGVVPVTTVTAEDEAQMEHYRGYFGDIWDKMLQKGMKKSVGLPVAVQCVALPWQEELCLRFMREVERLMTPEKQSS
Chain of human recombinant MAGL (Q99685 whole entry): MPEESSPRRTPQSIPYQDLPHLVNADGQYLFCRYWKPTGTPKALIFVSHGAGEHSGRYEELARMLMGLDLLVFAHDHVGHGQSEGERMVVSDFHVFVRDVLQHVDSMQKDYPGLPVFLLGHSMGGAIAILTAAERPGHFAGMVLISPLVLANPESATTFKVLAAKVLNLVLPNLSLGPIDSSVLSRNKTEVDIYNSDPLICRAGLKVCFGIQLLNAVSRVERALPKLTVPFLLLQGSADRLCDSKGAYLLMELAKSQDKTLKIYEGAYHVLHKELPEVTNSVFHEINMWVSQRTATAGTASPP

1-(4-(bis(2,3-dihydrobenzo[b][1,4]dioxin-6-yl)methyl)piperazine-1-carbonyl)-1H-benzo[d][1,2,3]triazole-6-carbonitrile and 1-(4-(bis(2,3-dihydrobenzo[b][1,4]dioxin-6-yl)methyl)piperazine-1-carbonyl)-1H-benzo[d][1,2,3]triazole-5-carbonitrile [Example 91]
IC50 (human recombinant MAGL; [1]): 1 to 10 nM
IC50 (human recombinant FAAH): > 50000 nM

O=C(N1CCN(C(c2ccc3c(c2)COCO3)c2ccc3c(c2)COCO3)CC1)n1ncc(-c2ccccc2)n1 [Example 26, (4-(bis(4H-benzo[d][1,3]dioxin-6-yl)methyl)piperazin-1-yl)(4-phenyl-2H-1,2,3-triazol-2-yl)methanone]
IC50 (human recombinant MAGL; [1]): 10 to 100 nM
IC50 (human recombinant FAAH): 1000 to 10000 nM

O=C(N1CCN(C(c2ccc3c(c2)COCO3)c2ccc3c(c2)COCO3)CC1)n1nnc2c(Cl)cc(C(F)(F)F)cc21 [Example 42, (4-(bis(4H-benzo[d][1,3]dioxin-6-yl)methyl)piperazin-1-yl)(4-chloro-6-(trifluoromethyl)-1H-benzo[d][1,2,3]triazol-1-yl)methanone]
IC50 (human recombinant MAGL; [1]): 1 to 10 nM
IC50 (human recombinant FAAH): > 20000 nM

O=C(Nc1cnccc1Cl)N1CCN(Cc2ccc3c(c2)OC(F)(F)O3)CC1 [JNJ-42165279, reference compound]
IC50 (human recombinant MAGL; [1]): > 50000 nM
IC50 (human recombinant FAAH): 106 nM

N#Cc1ccc2nnn(C(=O)N3CCC(N(c4ccc(F)cc4)c4ccc5c(c4)OCO5)CC3)c2c1 [Example 63, 1-(4-(benzo[d][1,3]dioxol-5-yl(4-fluorophenyl)amino)piperidine-1-carbonyl)-1H-benzo[d][1,2,3]triazole-6-carbonitrile]
IC50 (human recombinant MAGL; [1]): 1 to 10 nM
IC50 (human recombinant FAAH): 100 to 1000 nM

COc1ccc(N(c2ccc3c(c2)OCO3)C2CCN(C(=O)n3nnc4ccc(C#N)cc43)CC2)cc1 [Example 72, 1-(4-(benzo[d][1,3]dioxol-5-yl(4-methoxyphenyl)amino)piperidine-1-carbonyl)-1H-benzo[d][1,2,3]triazole-6-carbonitrile]
IC50 (human recombinant MAGL; [1]): 1 to 10 nM
IC50 (human recombinant FAAH): 100 to 1000 nM

N#Cc1ncn(C(=O)N2CCC3(CCN(C(c4ccc5c(c4)COCO5)c4ccc5c(c4)COCO5)C3)C2)n1 (stereo not drawn) [Example 85, 1-(7-(bis(4H-benzo[d][1,3]dioxin-6-yl)methyl)-2,7-diazaspiro[4.4]nonane-2-carbonyl)-1H-1,2,4-triazole-3-carbonitrile]
IC50 (human recombinant MAGL; [1]): 10 to 100 nM
IC50 (human recombinant FAAH): 1000 to 10000 nM

N#Cc1ccc2nnn(C(=O)N3CCC(N(c4ccc(C(F)(F)F)cc4)c4ccc5c(c4)OCO5)CC3)c2c1 [Example 69, 1-(4-(benzo[d][1,3]dioxol-5-yl(4-(trifluoromethyl)phenyl)amino)piperidine-1-carbonyl)-1H-benzo[d][1,2,3]triazole-6-carbonitrile]
IC50 (human recombinant MAGL; [1]): 1 to 10 nM
IC50 (human recombinant FAAH): 100 to 1000 nM

COc1ccc(C(c2ccc(OC)c(OC)c2)N2CCN(C(=O)n3nnc4cc(C#N)ccc43)CC2)cc1OC [Example 94, 1-(4-(bis(3,4-dimethoxyphenyl)methyl)piperazine-1-carbonyl)-1H-benzo[d][1,2,3]triazole-5-carbonitrile]
IC50 (human recombinant MAGL; [1]): 10 to 100 nM
IC50 (human recombinant FAAH): > 50000 nM

O=C(N1CCN(C(c2ccc3c(c2)COCO3)c2ccc3c(c2)COCO3)CC1)n1nnc2cc(C(F)(F)F)ccc21 [Example 45, (4-(bis(4H-benzo[d][1,3]dioxin-6-yl)methyl)piperazin-1-yl)(5-(trifluoromethyl)-1H-benzo[d][1,2,3]triazol-1-yl)methanone]
IC50 (human recombinant MAGL; [1]): 10 to 100 nM
IC50 (human recombinant FAAH): > 1000 nM

N#Cc1ccc2c(c1)nnn2C(=O)N1CCC(N(c2ccc(C(F)(F)F)cc2)c2ccc3c(c2)OCO3)CC1 [Example 70, 1-(4-(benzo[d][1,3]dioxol-5-yl(4-(trifluoromethyl)phenyl)amino)piperidine-1-carbonyl)-1H-benzo[d][1,2,3]triazole-5-carbonitrile]
IC50 (human recombinant MAGL; [1]): 1 to 10 nM
IC50 (human recombinant FAAH): 100 to 1000 nM

N#Cc1ncn(C(=O)N2CCC(C(c3ccc4c(c3)COCO4)c3ccc4c(c3)COCO4)CC2)n1 [Example 129, 1-(4-(bis(4H-benzo[d][1,3]dioxin-6-yl)methyl)piperidine-1-carbonyl)-1H-1,2,4-triazole-3-carbonitrile]
IC50 (human recombinant MAGL; [1]): 1 to 10 nM
IC50 (human recombinant FAAH): 1000 to 10000 nM

N#Cc1ncn(C(=O)N2CCC(=C(c3ccc4c(c3)COCO4)c3ccc4c(c3)COCO4)CC2)n1 [Example 124, 1-(4-(bis(4H-benzo[d][1,3]dioxin-6-yl)methylene)piperidine-1-carbonyl)-1H-1,2,4-triazole-3-carbonitrile]
IC50 (human recombinant MAGL; [1]): 1 to 10 nM
IC50 (human recombinant FAAH): 1000 to 10000 nM

N#Cc1ncn(C(=O)N2CCCC(=C(c3ccc4c(c3)COCO4)c3ccc4c(c3)COCO4)CC2)n1 [Example 128, 1-(4-(bis(4H-benzo[d][1,3]dioxin-6-yl)methylene)azepane-1-carbonyl)-1H-1,2,4-triazole-3-carbonitrile]
IC50 (human recombinant MAGL; [1]): 1 to 10 nM
IC50 (human recombinant FAAH): 1000 to 10000 nM

O=C(N1CCN(C(c2ccc3c(c2)CCO3)c2ccc3c(c2)CCO3)CC1)n1nnc2ccccc21 [Example 108, (1H-benzo[d][1,2,3]triazol-1-yl)(4-(bis(2,3-dihydrobenzofuran-5-yl)methyl)piperazin-1-yl)methanone]
IC50 (human recombinant MAGL; [1]): 1 to 10 nM
IC50 (human recombinant FAAH): ~10000 nM

CCN(CC)C(=O)N1CCN(C(c2ccc3c(c2)COCO3)c2ccc3c(c2)COCO3)CC1 [Example 18, 4-(bis(4H-benzo[d][1,3]dioxin-6-yl)methyl)-N,N-diethylpiperazine-1-carboxamide]
IC50 (human recombinant MAGL; [1]): > 100 nM
IC50 (human recombinant FAAH): > 50000 nM

O=C(Oc1ccc([N+](=O)[O-])cc1)N1CCN(C(c2ccc3c(c2)COCO3)c2ccc3c(c2)COCO3)CC1 [Example 4, 4-nitrophenyl 4-(bis(4H-benzo[d][1,3]dioxin-6-yl)methyl)piperazine-1-carboxylate]
IC50 (human recombinant MAGL): 100 to 1000 nM
IC50 (human recombinant FAAH): > 10000 nM

C=COc1ccc(N(c2ccc(F)cc2)C2CCN(C(=O)n3nnc4ccc(C#N)cc43)CC2)cc1 [Example 76, 1-(4-((4-fluorophenyl)(4-(vinyloxy)phenyl)amino)piperidine-1-carbonyl)-1H-benzo[d][1,2,3]triazole-6-carbonitrile]
IC50 (human recombinant MAGL; [1]): 1 to 10 nM
IC50 (human recombinant FAAH): 100 to 1000 nM

O=C(Nc1cccnn1)N1CCC(=Cc2cccc(Oc3ccc(C(F)(F)F)cn3)c2)CC1 [PF-04457845, reference compound]
IC50 (human recombinant MAGL; [1]): > 10000 nM
IC50 (human recombinant FAAH): 1.9 nM

O=C(N1CCN(C(c2ccc3c(c2)COCO3)c2ccc3c(c2)COCO3)CC1)n1nc2ccccn2c1=O [Example 50, 2-(4-(bis(4H-benzo[d][1,3]dioxin-6-yl)methyl)piperazine-1-carbonyl)-[1,2,4]triazolo[4,3-a]pyridin-3(2H)-one]
IC50 (human recombinant MAGL; [1]): > 100 nM
IC50 (human recombinant FAAH): > 50000 nM

O=C(N1CCN(C(c2ccc3c(c2)COCO3)c2ccc3c(c2)COCO3)CC1)n1nnc2ccc(C(F)(F)F)cc21 [Example 44, (4-(bis(4H-benzo[d][1,3]dioxin-6-yl)methyl)piperazin-1-yl)(6-(trifluoromethyl)-1H-benzo[d][1,2,3]triazol-1-yl)methanone]
IC50 (human recombinant MAGL; [1]): 1 to 10 nM
IC50 (human recombinant FAAH): > 10000 nM

COc1ccc(C(c2ccc(OC)c(OC)c2)N2CCN(C(=O)n3nnc4ccc(C#N)cc43)CC2)cc1OC [Example 93, 1-(4-(bis(3,4-dimethoxyphenyl)methyl)piperazine-1-carbonyl)-1H-benzo[d][1,2,3]triazole-6-carbonitrile]
IC50 (human recombinant MAGL; [1]): 10 to 100 nM
IC50 (human recombinant FAAH): > 50000 nM

N#Cc1ccc2c(c1)nnn2C(=O)N1CCN(C(c2ccc(F)cc2)c2ccc(F)cc2)CC1 [Example 121, 1-(4-(bis(4-fluorophenyl)methyl)piperazine-1-carbonyl)-1H-benzo[d][1,2,3]triazole-5-carbonitrile]
IC50 (human recombinant MAGL; [1]): 1 to 10 nM
IC50 (human recombinant FAAH): ~100 nM

O=C(On1nnc2cccnc21)N1CCN(C(c2ccc3c(c2)COCO3)c2ccc3c(c2)COCO3)CC1 [Example 23, 3H-[1,2,3]triazolo[4,5-b]pyridin-3-yl 4-(bis(4H-benzo[d][1,3]dioxin-6-yl)methyl)piperazine-1-carboxylate]
IC50 (human recombinant MAGL; [1]): > 100 nM
IC50 (human recombinant FAAH): > 10000 nM

N#Cc1ccc2c(c1)nnn2C(=O)N1CCC(N(c2ccc3c(c2)OCO3)c2ccc3c(c2)OCO3)CC1 [Example 68, 1-(4-(bis(benzo[d][1,3]dioxol-5-yl)amino)piperidine-1-carbonyl)-1H-benzo[d][1,2,3]triazole-5-carbonitrile]
IC50 (human recombinant MAGL; [1]): 1 to 10 nM
IC50 (human recombinant FAAH): 100 to 1000 nM

COc1cccc(C(c2cccc(OC)c2)N2CCN(C(=O)n3nnc4ccc(C#N)cc43)CC2)c1 [Example 95, 1-(4-(bis(3-methoxyphenyl)methyl)piperazine-1-carbonyl)-1H-benzo[d][1,2,3]triazole-6-carbonitrile]
IC50 (human recombinant MAGL; [1]): 1 to 10 nM
IC50 (human recombinant FAAH): 10000 to 50000 nM

CCN(C(=O)N1CCN(C(c2ccc3c(c2)COCO3)c2ccc3c(c2)COCO3)CC1)C(C)C [Example 11, 4-(bis(4H-benzo[d][1,3]dioxin-6-yl)methyl)-N-ethyl-N-isopropylpiperazine-1-carboxamide]
IC50 (human recombinant MAGL; [1]): > 100 nM
IC50 (human recombinant FAAH): > 50000 nM

N#Cc1ccc2c(c1)nnn2C(=O)N1CCC(N(c2ccc(F)cc2)c2ccc3c(c2)OCO3)CC1 [Example 64, 1-(4-(benzo[d][1,3]dioxol-5-yl(4-fluorophenyl)amino)piperidine-1-carbonyl)-1H-benzo[d][1,2,3]triazole-5-carbonitrile]
IC50 (human recombinant MAGL; [1]): 1 to 10 nM
IC50 (human recombinant FAAH): 10 to 100 nM

N#Cc1ncn(C(=O)N2CC3(CCN(C(c4ccc5c(c4)COCO5)c4ccc5c(c4)COCO5)C3)C2)n1 [Example 84, 1-(6-(bis(4H-benzo[d][1,3]dioxin-6-yl)methyl)-2,6-diazaspiro[3.4]octane-2-carbonyl)-1H-1,2,4-triazole-3-carbonitrile]
IC50 (human recombinant MAGL; [1]): 1 to 10 nM
IC50 (human recombinant FAAH): 1000 to 10000 nM

COc1ccc(C(c2ccc3c(c2)COCO3)N2CCN(C(=O)n3cnc(C#N)n3)CC2)cn1 (stereo not drawn) [Example 118, 1-(4-((4H-benzo[d][1,3]dioxin-6-yl)(6-methoxypyridin-3-yl)methyl)piperazine-1-carbonyl)-1H-1,2,4-triazole-3-carbonitrile]
IC50 (human recombinant MAGL; [1]): 1 to 10 nM
IC50 (human recombinant FAAH): ~10000 nM
